Marks after values point to notes of the source that are not given here.
What was measured:
[1] = Extemporaneous loading of latanoprost and latanoprostene BUNOD on sterile MS5; type: physicochemical; details: for Drug loading on MS5: extemporaneous loading on freeze-dried e-beam sterilized MS5, 5 min room temperature; for loading efficiencies (%) on MS5: extemporaneous loading on sterile MS5, 5 min room temperature
Protocol: After the sieving step of MS5, 100 μL or 250 μL of pellets were suspended in 5 mL of a solution containing 2.5% (w/v) of mannitol. After homogenization, the pellets of microspheres were recovered, frozen-dried and sterilized by e-beam radiation (25 kilograys).
Latanoprost Loading To the dry and sterile pellets of microspheres (250 μL), 500 μL of latanoprost solution (TRC-L177280-10MG) at 2 mg/mL in acetonitrile/water mixture (70/30) were added. After 5 min of mixing at room temperature under stirring on a tube rotator (=30 rpm), the supernatants were removed for the measurement of unbound latanoprost by RP-HPLC at 210 nm on a C18 column (46×150 mm) using a mobile phase made of acetonitrile/water containing 0.1% TFA (60:40, v/v) at a flow rate of 1 mL/min in the isocratic mode at 25° C. The amount of latanoprost in supernatants was obtained by extrapolation from a standard curve (0.5 to 20 μg/mL). The loaded dose was calculated by subtracting the final amount of latanoprost from the initial amount. The latanoprost loading for 1 mL of beads was obtained by multiplying by 4 the quantity loaded on 250 μL of MS.
Latanoprostene BUNOD is a nitric oxide (NO)-donating prostaglandin F2a analogue approved for the reduction of intraocular pressure in patients with open-angle glaucoma or ocular hypertension. To the dry and sterile pellets of microspheres (100 μL), 700 μL of latanoprotene BUNOD (TRC-L177335-2.5MG) solution at 1 mg/mL in acetonitrile/water mixture (70/30%) were added. After 5 min of mixing at room temperature under stirring on a tube rotator (=30 rpm), the supernatants were removed for the measurement of unbound drug by RP-HPLC at 210 nm on a C18 column (46×150 mm) using a mobile phase made of acetonitrile/water containing 0.1% TFA (60:40, v/v) at a flow rate of 1 mL/min in the isocratic mode at 25° C. The amount of latanoprotene BUNOD in supernatants was obtained by extrapolation from a standard curve (0.25 to 25 μg/mL). The loaded dose was calculated by subtracting the final amount of latanoprotene BUNOD from the initial amount. The latanoprotene BUNOD loading for 1 mL of beads was obtained by multiplying by 10 the quantity loaded on 100 μL of MS.

[2] = In vitro release of latanoprost and latanoprostene BUNOD in PBS after extemporaneous loading on MS5; type: physicochemical; details: for elution after 5 weeks of incubation: loaded on MS5, PBS 37 °C (FIG. 9); for % of prostaglandin analogues release after 10 min in PBS / % of prostaglandin analogues release after 1 day in PBS / % of prostaglandin analogues release after 7 days in PBS / % of prostaglandin analogues release after 18 days in PBS: loaded on sterile MS5, PBS pH 7.4, 37 °C
Protocol: Then, immediately after the loading step, 50 mL of PBS (Sigma P-5368; 10 mM phosphate buffered saline; NaCl 0,136 M; KCl 0,0027 M; pH 7.4) was added to the microspheres loaded with latanoprost or latanoprostene BUNOD for the in vitro drug release (37° C., 150 rpm). The medium was completely renewed after each sample collection (10 min, 2 h, 24 h and every 3-4 days during 5 weeks). The amounts of prostaglandin analogues in PBS supernatants were determined by RP-HPLC at 210 nm for latanoprost and latanoprostene BUNOD on a C18 column (46×150 mm) using a mobile phase made of acetonitrile/water containing 0.1% TFA (60:40, v/v) at a flow rate of 1 mL/min in the isocratic mode at 25° C. The results are summarized in Table 7 and in FIG. 9 for each drug.

[3] = pubchem.ncbi.nlm.nih.gov; cited from earlier work
[4] = In vitro release of travoprost in PBS after extemporaneous loading; type: physicochemical; details: from MS5 after extemporaneous loading; PBS 37 °C (FIG. 7)
Protocol: Then, PBS (50 mL) was added to the microspheres loaded with travoprost for the in vitro drug release experiment (37° C., 150 rpm). The medium was completely renewed after each sample collection. The amounts of travoprost in PBS supernatants were determined by RP-HPLC at 222 nm on a C18 column (46×150 mm) using a mobile phase made of acetonitrile/water containing 0.1% TFA (60:40, v/v) at a flow rate of 1 mL/min in the isocratic mode at 25° C.

Row | SMILES | Drug loading on MS5 [1] [mg/mL] | loading efficiencies (%) on MS5 [1] | elution after 5 weeks of incubation [2] | % of prostaglandin analogues release after 10 min in PBS [2] [%] | % of prostaglandin analogues release after 1 day in PBS [2] [%] | % of prostaglandin analogues release after 7 days in PBS [2] [%] | % of prostaglandin analogues release after 18 days in PBS [2] [%] | amount of drug loaded on the degradable microsphere MS5 ([1]; extemporaneous loading on sterile MS5) | Partition coefficient P (Log P) of the prostaglandin analogues [3] | duration of sustained travoprost release [4] | initial burst release of travoprost [4] [%]
1 | CC(C)OC(=O)CCC/C=C\C[C@@H]1[C@@H](CC[C@@H](O)CCc2ccccc2)[C@H](O)C[C@@H]1O [Latanoprost] | 3.83 ± 0.07 | (98%)** | practically complete | 8.7 ± 0.5 | 42.3 ± 10 | 59.7 ± 11.1 | 77.5 ± 11.9 | – | – | – | –
2 | O=C(CCC/C=C\C[C@@H]1[C@@H](CC[C@@H](O)CCc2ccccc2)[C@H](O)C[C@@H]1O)OCCCCO[N+](=O)[O-] [Latanoprostene BUNOD] | 6.58 ± 0.1 | (94%) | practically complete | 7.04 ± 2.2 | 32.4 ± 4.1 | 45.2 ± 4.5 | 60 ± 6.2 | at least 6.5 mg | 3.79-3.94 | – | –
3 | CC(C)OC(=O)CCC/C=C\C[C@@H]1[C@@H](/C=C/[C@@H](O)COc2cccc(C(F)(F)F)c2)[C@H](O)C[C@@H]1O [travoprost] | – | – | – | – | – | – | – | – | – | at least two months | 3.5
